Test results reported in ChEMBL document CHEMBL1857833, “Screening and optimization of specific chemical series against human African Trypanosomiasis (HAT)”.
Converted amounts (≈) assume the structure as drawn.

Experiments:
[1] = target: T1, MDR1 (ABCB1) (Homo sapiens, UniProt P08183); test: DNDI: % of compound recovered from apical to basolateral permeability assay in MDCK cells transfected with human MDR1 after 60 mins at a concentration of 3uM; format: ADME, cell-based, Canis lupus familiaris; settings: dog
[2] = DNDI: Lipophilicity measured in Chromatographic hydrophobicity index (CHI) assay, pH 7.4; format: physicochemical; settings: buffer
[3] = target: T1, MDR1 (ABCB1); test: DNDI: Apparent permeability from apical to basolateral side of the MDCK cell transfected with human MDR1after 60 mins at a concentration of 3uM; format: ADME, cell-based, Canis lupus familiaris; settings: dog, MDCK-MDR1
[4] = target: T1, MDR1 (ABCB1); test: DNDI: Efflux ratio for permeability from basolateral to apical side to apical to basolateral side of MDCK cells transfected with human MDR1; format: ADME, cell-based, Canis lupus familiaris; settings: dog
[5] = DNDI: Cytotoxicity against L929 mouse fibroblasts, 72 hour.; format: toxicity, cell-based; settings: mouse, L929 mouse fibroblasts
[6] = target: T1, MDR1 (ABCB1); test: DNDI: % of compound recovered from membrane of apical to basolateral permeability assay in MDCK cells transfected with human MDR1 after 60 mins at a concentration of 3uM in the presence of GF120918; format: ADME, cell-based, Canis lupus familiaris; settings: dog, MDCK-MDR1, with GF120918 (concentration not stated); read-out: Mem Rec
[7] = target: T1, MDR1 (ABCB1); test: DNDI: % of compound recovered from apical to basolateral permeability assay in MDCK cells transfected with human MDR1 after 60 mins at a concentration of 3uM in the presence of GF120918; format: ADME, cell-based, Canis lupus familiaris; settings: dog, MDCK-MDR1, with GF120918 (concentration not stated)
[8] = tested on: Trypanosoma brucei; test: DNDI: Inhibition of Human African Trypanosomiasis, SBRI 427, in vitro; format: functional, organism-based; settings: Trypanosoma brucei, SBRI 427; read-out: IC50
[9] = target: T1, MDR1 (ABCB1); test: DNDI: % of compound recovered from membrane of apical to basolateral permeability assay in MDCK cells transfected with human MDR1 after 60 mins at a concentration of 3uM; format: ADME, cell-based, Canis lupus familiaris; settings: dog, read-out: Mem Rec
[10] = DNDI: Solubility in phosphate buffered saline at pH7.4 measured by nephelometry at room temperature (NEPH-RT); format: physicochemical; settings: pH 7.4
[11] = DNDI: half-life in mouse S9 microsomes at a concentration of 1uM; format: ADME, subcellular, Liver, S9 fraction
[12] = in vitro; settings: mouse, liver microsomes, t (1 / 2)
Description: DNDI: half life in mouse liver microsomes at a concentration of 1uM

[13] = tested on: Trypanosoma brucei; test: DNDI: Mean survival time in days (MSD) of mice after intraperitoneal injection of Human African Trypanosomiasis (HAT), STIB 795, in vivo at 50 mg/kg/day for 4 days.; format: functional, Mus musculus
[14] = tested on: Trypanosoma brucei; test: DNDI: Mean survival time in days (MSD) of mice after p.o. administration of Human African Trypanosomiasis (HAT), STIB 795, in vivo at 100 mg/kg/day for 4 days.; format: functional, Mus musculus; settings: route oral
[15] = mouse, microsomes, 1 µM
Description: DNDI: in vitro intrinsic clearance in mouse liver microsomes at a concentration of 1uM

[16] = tested on: Trypanosoma brucei; test: DNDI: Mean survival time in days (MSD) of mice after intraperitoneal injection of Human African Trypanosomiasis (HAT), EATRO 110, in vivo at 1.25 mg/kg/day for 4 days.; format: functional, Mus musculus
[17] = DNDI: Cytotoxicity against L929 mouse fibroblasts, CYTO-SP, 24 hour; format: toxicity, cell-based; settings: mouse, L929 mouse fibroblasts
[18] = DNDI: in vitro intrinsic clearance in human liver microsomes at a concentration of 10uM; format: ADME, Microsome
[19] = tested on: Trypanosoma brucei; test: DNDI: Mean survival time in days (MSD) of mice after intraperitoneal injection of Human African Trypanosomiasis (HAT), EATRO 110, in vivo at 20 mg/kg/day for 4 days.; format: functional, Mus musculus
[20] = tested on: Plasmodium falciparum; test: DNDI: Inhibition of the malaria parasite Plasmodium falciparum, in vitro; format: functional, organism-based; settings: K1
[21] = tested on: Trypanosoma cruzi; test: DNDI: Inhibition of Chagas Disease parasite Trypanosoma cruzi (Tulahuen LacZ, Clone C4), in vitro.; format: functional, organism-based
[22] = tested on: Trypanosoma brucei; test: DNDI: Mean survival time in days (MSD) of mice after intraperitoneal injection of Human African Trypanosomiasis (HAT), EATRO 110, in vivo at 12.5 mg/kg/day for 4 days.; format: functional, Mus musculus
[23] = DNDI: half life in human liver microsomes at a concentration of 10uM; format: ADME, Microsome
[24] = tested on: Trypanosoma brucei rhodesiense; test: DNDI: Inhibition of Human African Trypanosomiasis (HAT), STIB 900, in vitro; format: functional, organism-based
[25] = DNDI: Cytotoxicity against L-6 rat myoblasts from skeletal muscle cells; format: toxicity, cell-based, L6; settings: L-6 rat skeletal muscle myoblasts
[26] = tested on: Leishmania donovani; test: DNDI: Inhibition of formation of Leishmania donovani (strain MHOM/ET/67/L82) axenic amastigotes, in vitro.; format: functional, organism-based
[27] = tested on: Trypanosoma brucei; test: DNDI: Mean survival time in days (MSD) of mice after intraperitoneal injection of Human African Trypanosomiasis (HAT), EATRO 110, at 0.5 mg/kg/day for 4 days.; format: functional, Mus musculus
[28] = tested on: Trypanosoma brucei; test: DNDI: Mean survival time in days (MSD) of mice after intraperitoneal injection of Human African Trypanosomiasis (HAT), EATRO 110, in vivo at 2.5 mg/kg/day for 4 days.; format: functional, Mus musculus
[29] = tested on: Trypanosoma brucei; test: DNDI: Mean survival time in days (MSD) of mice after intraperitoneal injection of Human African Trypanosomiasis (HAT), EATRO 110, in vivo at 5 mg/kg/day for 4 days.; format: functional, Mus musculus
[30] = DNDI: Solubility in phosphate buffered saline at pH7.4 measured by optical density (turbidimetry) at room temperature (OD-RT); format: physicochemical; settings: pH 7.4
[31] = DNDI: in vitro intrinsic clearance in mouse liver microsomes at a concentration of 10uM; format: ADME, Microsome; settings: read-out: CLint in vitro
[32] = DNDI: half life in mouse liver microsomes at a concentration of 10uM; format: ADME, Microsome
[33] = target: T1, MDR1 (ABCB1); test: DNDI: % of compound recovered from apical to basolateral permeability assay in MDCK cells transfected with human MDR1; format: ADME, cell-based, Canis lupus familiaris; settings: dog
[34] = target: T1, MDR1 (ABCB1); test: DNDI: Apparent permeability from apical to basolateral side of the MDCK cell transfected with human MDR1; format: ADME, cell-based, Canis lupus familiaris; settings: dog
[35] = target: T1, MDR1 (ABCB1); test: DNDI: % of compound recovered from basolateral to apical permeability assay in MDCK cells transfected with human MDR1; format: ADME, cell-based, Canis lupus familiaris; settings: dog
[36] = target: T1, MDR1 (ABCB1); test: DNDI: Apparent permeability from basolateral to apical side of the MDCK cell transfected with human MDR1 after 60 mins at a concentration of 3uM; format: ADME, cell-based, Canis lupus familiaris; settings: dog
[37] = tested on: Trypanosoma brucei; test: DNDI: Inhibition of Human African Trypanosomiasis, EATRO 110, in vitro; format: functional, organism-based

T1 sequence (P08183 whole entry): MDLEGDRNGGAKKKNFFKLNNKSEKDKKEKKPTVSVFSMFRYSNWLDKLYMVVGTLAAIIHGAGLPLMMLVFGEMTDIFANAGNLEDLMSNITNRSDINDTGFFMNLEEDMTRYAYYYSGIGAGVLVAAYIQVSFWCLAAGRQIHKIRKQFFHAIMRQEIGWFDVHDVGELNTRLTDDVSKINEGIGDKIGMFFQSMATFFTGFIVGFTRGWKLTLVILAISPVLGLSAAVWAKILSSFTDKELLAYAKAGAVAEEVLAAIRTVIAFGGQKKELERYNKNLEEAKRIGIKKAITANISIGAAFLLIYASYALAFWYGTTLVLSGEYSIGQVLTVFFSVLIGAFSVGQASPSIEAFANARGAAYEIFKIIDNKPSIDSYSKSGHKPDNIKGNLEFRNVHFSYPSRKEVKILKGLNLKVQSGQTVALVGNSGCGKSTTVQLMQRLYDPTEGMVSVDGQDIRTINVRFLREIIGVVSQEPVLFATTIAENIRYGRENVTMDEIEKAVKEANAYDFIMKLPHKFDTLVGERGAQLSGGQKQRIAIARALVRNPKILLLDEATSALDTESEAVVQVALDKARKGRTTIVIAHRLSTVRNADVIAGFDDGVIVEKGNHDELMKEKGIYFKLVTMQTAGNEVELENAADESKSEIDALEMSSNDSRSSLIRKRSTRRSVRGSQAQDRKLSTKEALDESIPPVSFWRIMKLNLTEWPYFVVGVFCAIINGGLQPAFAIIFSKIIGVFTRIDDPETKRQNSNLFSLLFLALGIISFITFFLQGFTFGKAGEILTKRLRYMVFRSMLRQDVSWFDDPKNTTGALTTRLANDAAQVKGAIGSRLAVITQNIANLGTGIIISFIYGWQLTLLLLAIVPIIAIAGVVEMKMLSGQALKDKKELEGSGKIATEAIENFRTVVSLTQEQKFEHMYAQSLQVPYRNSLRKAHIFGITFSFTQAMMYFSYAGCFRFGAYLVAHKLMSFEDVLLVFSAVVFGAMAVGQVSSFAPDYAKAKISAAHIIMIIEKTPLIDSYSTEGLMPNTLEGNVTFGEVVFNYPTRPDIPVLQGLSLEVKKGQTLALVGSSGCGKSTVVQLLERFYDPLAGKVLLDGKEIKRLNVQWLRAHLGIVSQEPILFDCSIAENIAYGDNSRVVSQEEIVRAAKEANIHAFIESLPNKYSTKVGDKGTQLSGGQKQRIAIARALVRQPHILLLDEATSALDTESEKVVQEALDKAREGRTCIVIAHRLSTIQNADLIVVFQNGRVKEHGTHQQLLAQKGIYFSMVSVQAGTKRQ

SMILES	chromatographic logD [2]	IC50 at 72 h [5]	IC50 [8]	solubility kinetic [10]	half-life at 1 µM [12]	CLint in vitro [15]	MSD [16]	IC50 at 24 h [17]	MSD [19]	MSD [22]	MSD [27]	MSD [28]	MSD [29]	solubility kinetic [30]	microsomal CLint at 10 µM [31]	half-life at 10 µM [32]	other results
CC(C)(C)c1cc(N2CCNCC2)n2nc(-c3ccc(F)cc3)cc2n1	4.15	2.75 µg/mL (≈ 7.78 µM)	1.11 µg/mL (≈ 3.14 µM)	50 µM (≈ 17.7 µg/mL)													recovery at 1 h, 3 µM [1]: 103%; Papp A→B at 1 h, 3 µM [3]: 10.3 ×10⁻⁶ cm/s; efflux ratio ([4]; MDCK-MDR1, read-out: Calculated Ratio): 0.08; recovery at 1 h, 3 µM [6]: 76.1%; recovery at 1 h, 3 µM [7]: 91%; recovery at 1 h, 3 µM [9]: 88.4%; half-life at 1 µM [11]: > 350 min
CCCCc1ccc(-c2nc(CNCCCN(C)C)co2)cc1	5.07	1.4 µg/mL (≈ 4.44 µM)	0.07 µg/mL (≈ 0.222 µM)	< 1 µM	96 min	9 µL/min/mg											MSD [13]: 7 days; MSD [14]: 7 days
COc1ccc(/C(=N/O)NC2CCCCC2)cc1	3.82	> 10 µg/mL	0.61 µg/mL (≈ 2.46 µM)		3 min	329 µL/min/mg	4 days	> 50 µg/mL	4.6 days	4 days	4 days	4 days	4.3 days	50 µM (≈ 12.4 µg/mL)	544 µL/min/mg	5 min	CLint in vitro [18]: 38 µL/min/mg; IC50 [20]: 4.7 µg/mL (≈ 18.9 µM); IC50 [21]: > 30 µg/mL; half-life at 10 µM [23]: 76 min; IC50 [24]: 18.3 µg/mL (≈ 73.7 µM); IC50 [25]: 58.3 µg/mL (≈ 235 µM); IC50 [26]: 11.9 µg/mL (≈ 48 µM)
COc1ccccc1Oc1ncccc1/C(=N\O)NC1CCCCC1	3.77		0.78 µg/mL (≈ 2.28 µM)				4 days	> 50 µg/mL	4.3 days	4 days	4 days	4 days	4 days	25 µM (≈ 8.54 µg/mL)	138 µL/min/mg	21 min	recovery [33]: 77%; efflux ratio ([4]; read-out: B-A/A-B): 2.6; Papp A→B [34]: 18.4 ×10⁻⁶ cm/s; recovery [35]: 84%; Papp B→A at 1 h, 3 µM [36]: 48.3 ×10⁻⁶ cm/s; IC50 [37]: 1.56 µg/mL (≈ 4.57 µM)
